The values that follow come from the supplement of paper PMC10307832.

What all share (assay): relative viability (nuclei count vs DMSO), 5 days (fraction); higher = more cells survive
Compound in assay [1]: C1=CC2=NC=CN=C2C=C1/C=C/3\C(=O)NC(=O)S3 + CS(=O)(=O)N1CCN(Cc2cc3nc(-c4cccc5[nH]ncc45)nc(N4CCOCC4)c3s2)CC1 [Pictilisib] (partner 1 µM)
The method in brief:
(§1)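 Relative viability was taken as the ratio of nuclei in treated wells to nuclei in vehicle wells. Lung cancer cell lines in 1536-well plates received compounds by pin tool one day after seeding, either one drug alone or a fixed anchor-drug dose plus five library-drug doses (not always all listed) in √10 steps. Nuclei were counted on 4× images after 5 days of treatment, and values are medians of duplicate plates.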

Compound in the assay “BGJ398 + Tozasertib”: CCN1CCN(c2ccc(Nc3cc(N(C)C(=O)Nc4c(Cl)c(OC)cc(OC)c4Cl)ncn3)cc2)CC1 [BGJ398] + Cc1cc(Nc2cc(N3CCN(C)CC3)nc(Sc3ccc(NC(=O)C4CC4)cc3)n2)n[nH]1 [Tozasertib] (partner 0.1 µM)
The method in brief: as §1

Compound in the assay “BGJ398 + Olaparib”: CCN1CCN(c2ccc(Nc3cc(N(C)C(=O)Nc4c(Cl)c(OC)cc(OC)c4Cl)ncn3)cc2)CC1 [BGJ398] + O=C(c1cc(Cc2n[nH]c(=O)c3ccccc23)ccc1F)N1CCN(C(=O)C2CC2)CC1 [Olaparib] (partner 8 µM)
The method in brief:
as §1

Compound in assay [2]: C1=CC2=NC=CN=C2C=C1/C=C/3\C(=O)NC(=O)S3 + COc1cc2c(Oc3ccc(NC(=O)C4(C(=O)Nc5ccc(F)cc5)CC4)cc3F)ccnc2cc1OCCCN1CCOCC1 [Foretinib] (partner 0.25 µM)
The method in brief: as §1

Regarding NCI-H23, the relative viability in assay [1] (first compound 0.02 µM) came to 0.396; in assay [1] (first compound 0.06325 µM) it was 0.688; in assay [1] (first compound 0.2 µM), 0.557; in assay [1] (first compound 0.6325 µM) it was 0.517; in assay [1] (first compound 2 µM) it was 0.504; with BGJ398 + Tozasertib (first compound 0.01 µM), 0.387. Further, the relative viability was 0.339 with BGJ398 + Tozasertib (first compound 0.03162 µM); 0.335 with BGJ398 + Tozasertib (first compound 0.1 µM); 0.36 with BGJ398 + Tozasertib (first compound 0.3162 µM); 0.304 with BGJ398 + Tozasertib (first compound 1 µM); 0.333 in the assay with BGJ398 + Olaparib (first compound 0.01 µM); 0.297 with BGJ398 + Olaparib (first compound 0.03162 µM). In addition, the relative viability worked out at 0.303 with BGJ398 + Olaparib (first compound 0.1 µM); 0.371 with BGJ398 + Olaparib (first compound 0.3162 µM); 0.268 with BGJ398 + Olaparib (first compound 1 µM); 1.12 in assay [2] (first compound 0.02 µM); 0.976 in assay [2] (first compound 0.06325 µM); 1.02 in assay [2] (first compound 0.2 µM). Also, the relative viability is 0.902 in assay [2] (first compound 0.6325 µM) and 0.856 in assay [2] (first compound 2 µM).

Take LCLC-97TM1: the relative viability worked out at 0.186 in assay [1] (first compound 0.02 µM); 0.185 in assay [1] (first compound 0.06325 µM); 0.21 in assay [1] (first compound 0.2 µM); 0.141 in assay [1] (first compound 0.6325 µM); 0.178 in assay [1] (first compound 2 µM); 0.239 with BGJ398 + Tozasertib (first compound 0.01 µM). Moreover, the relative viability came out at 0.224 in the assay with BGJ398 + Tozasertib (first compound 0.03162 µM); 0.293 in the assay with BGJ398 + Tozasertib (first compound 0.1 µM); 0.23 with BGJ398 + Tozasertib (first compound 0.3162 µM); 0.35 with BGJ398 + Tozasertib (first compound 1 µM); 0.294 in the assay with BGJ398 + Olaparib (first compound 0.01 µM); 0.393 with BGJ398 + Olaparib (first compound 0.03162 µM). For the same cell line, the relative viability came out at 0.443 with BGJ398 + Olaparib (first compound 0.1 µM); 0.508 with BGJ398 + Olaparib (first compound 0.3162 µM); 0.277 with BGJ398 + Olaparib (first compound 1 µM); 0.919 in assay [2] (first compound 0.02 µM); 0.908 in assay [2] (first compound 0.06325 µM); 0.908 in assay [2] (first compound 0.2 µM). Besides, the figures for the relative viability in assay [2] (first compound 0.6325 µM) and in assay [2] (first compound 2 µM) were 0.996 and 0.688, respectively.

On to EPLC-272H, for which the relative viability worked out at 0.411 in assay [1] (first compound 0.02 µM); 0.407 in assay [1] (first compound 0.06325 µM); 0.364 in assay [1] (first compound 0.2 µM); 0.297 in assay [1] (first compound 0.6325 µM); 0.153 in assay [1] (first compound 2 µM); 0.17 with BGJ398 + Tozasertib (first compound 0.01 µM). For the same cell line, the relative viability with BGJ398 + Tozasertib (first compound 0.03162 µM) worked out at 0.276; in the assay with BGJ398 + Tozasertib (first compound 0.1 µM), 0.203; with BGJ398 + Tozasertib (first compound 0.3162 µM) it was 0.288; with BGJ398 + Tozasertib (first compound 1 µM), 0.227; in the assay with BGJ398 + Olaparib (first compound 0.01 µM) it was 0.626; with BGJ398 + Olaparib (first compound 0.03162 µM), 0.829. For the same cell line, the relative viability with BGJ398 + Olaparib (first compound 0.1 µM) was 0.594; in the assay with BGJ398 + Olaparib (first compound 0.3162 µM) it was 0.797; with BGJ398 + Olaparib (first compound 1 µM) it was 0.656; in assay [2] (first compound 0.02 µM) it was 0.846; in assay [2] (first compound 0.06325 µM), 0.693; in assay [2] (first compound 0.2 µM), 0.696. Also, the relative viability was found to be 0.664 in assay [2] (first compound 0.6325 µM) and 0.611 in assay [2] (first compound 2 µM).

Take NCI-H1915: the relative viability in assay [1] (first compound 0.02 µM) is 0.956; in assay [1] (first compound 0.06325 µM), 1.15; in assay [1] (first compound 0.2 µM), 1.12; in assay [1] (first compound 0.6325 µM), 0.774; in assay [1] (first compound 2 µM), 0.97; with BGJ398 + Tozasertib (first compound 0.01 µM), 0.446. Also, the relative viability stood at 0.438 with BGJ398 + Tozasertib (first compound 0.03162 µM); 0.433 in the assay with BGJ398 + Tozasertib (first compound 0.1 µM); 0.404 in the assay with BGJ398 + Tozasertib (first compound 0.3162 µM); 0.416 in the assay with BGJ398 + Tozasertib (first compound 1 µM); 0.231 in the assay with BGJ398 + Olaparib (first compound 0.01 µM); 0.285 in the assay with BGJ398 + Olaparib (first compound 0.03162 µM). Further, the relative viability with BGJ398 + Olaparib (first compound 0.1 µM) is 0.252; with BGJ398 + Olaparib (first compound 0.3162 µM), 0.256; with BGJ398 + Olaparib (first compound 1 µM), 0.246; in assay [2] (first compound 0.02 µM) it was 1.11; in assay [2] (first compound 0.06325 µM), 1.12; in assay [2] (first compound 0.2 µM), 1.15. The values for the relative viability in assay [2] (first compound 0.6325 µM) and in assay [2] (first compound 2 µM) were 1.09 and 1.04, respectively.

For NCI-H2405, the relative viability was found to be 0.488 in assay [1] (first compound 0.02 µM); 0.504 in assay [1] (first compound 0.06325 µM); 0.428 in assay [1] (first compound 0.2 µM); 0.433 in assay [1] (first compound 0.6325 µM); 0.182 in assay [1] (first compound 2 µM); 0.727 with BGJ398 + Tozasertib (first compound 0.01 µM). Moreover, the relative viability stood at 0.812 with BGJ398 + Tozasertib (first compound 0.03162 µM); 0.712 in the assay with BGJ398 + Tozasertib (first compound 0.1 µM); 0.727 with BGJ398 + Tozasertib (first compound 0.3162 µM); 0.712 with BGJ398 + Tozasertib (first compound 1 µM); 0.818 with BGJ398 + Olaparib (first compound 0.01 µM); 0.954 with BGJ398 + Olaparib (first compound 0.03162 µM). Moreover, the relative viability with BGJ398 + Olaparib (first compound 0.1 µM) was found to be 0.926; with BGJ398 + Olaparib (first compound 0.3162 µM), 0.923; with BGJ398 + Olaparib (first compound 1 µM), 0.768; in assay [2] (first compound 0.02 µM), 1.06; in assay [2] (first compound 0.06325 µM), 1.12; in assay [2] (first compound 0.2 µM), 1.13. For the same cell line, the relative viability in assay [2] (first compound 0.6325 µM) is 1.03; in assay [2] (first compound 2 µM), 0.838.
